The source of these data is patent US10040781B2, “Tank-binding kinase inhibitor compounds” (Gilead Sciences, Inc., priority 2014, dated 2018).

Structures are written as SMILES. Like-named read-outs stand apart in the source and are kept apart here. Where only a bound is given, the exact number is not on record here.

The target in one experiment is IKKε (Homo sapiens (Human), UniProt Q14164). The experiment in a line: IKKε TR-FRET enzymatic assay. Format: biochemical.
The next experiment deals with hJAK2 (Homo sapiens (Human), UniProt O60674). The experiment in a line: hJAK2 LANCE TR-FRET enzymatic assay. Format: biochemical. The note with it: read-out: JAK2 IC50.
Chain of hJAK2 (O60674 whole entry): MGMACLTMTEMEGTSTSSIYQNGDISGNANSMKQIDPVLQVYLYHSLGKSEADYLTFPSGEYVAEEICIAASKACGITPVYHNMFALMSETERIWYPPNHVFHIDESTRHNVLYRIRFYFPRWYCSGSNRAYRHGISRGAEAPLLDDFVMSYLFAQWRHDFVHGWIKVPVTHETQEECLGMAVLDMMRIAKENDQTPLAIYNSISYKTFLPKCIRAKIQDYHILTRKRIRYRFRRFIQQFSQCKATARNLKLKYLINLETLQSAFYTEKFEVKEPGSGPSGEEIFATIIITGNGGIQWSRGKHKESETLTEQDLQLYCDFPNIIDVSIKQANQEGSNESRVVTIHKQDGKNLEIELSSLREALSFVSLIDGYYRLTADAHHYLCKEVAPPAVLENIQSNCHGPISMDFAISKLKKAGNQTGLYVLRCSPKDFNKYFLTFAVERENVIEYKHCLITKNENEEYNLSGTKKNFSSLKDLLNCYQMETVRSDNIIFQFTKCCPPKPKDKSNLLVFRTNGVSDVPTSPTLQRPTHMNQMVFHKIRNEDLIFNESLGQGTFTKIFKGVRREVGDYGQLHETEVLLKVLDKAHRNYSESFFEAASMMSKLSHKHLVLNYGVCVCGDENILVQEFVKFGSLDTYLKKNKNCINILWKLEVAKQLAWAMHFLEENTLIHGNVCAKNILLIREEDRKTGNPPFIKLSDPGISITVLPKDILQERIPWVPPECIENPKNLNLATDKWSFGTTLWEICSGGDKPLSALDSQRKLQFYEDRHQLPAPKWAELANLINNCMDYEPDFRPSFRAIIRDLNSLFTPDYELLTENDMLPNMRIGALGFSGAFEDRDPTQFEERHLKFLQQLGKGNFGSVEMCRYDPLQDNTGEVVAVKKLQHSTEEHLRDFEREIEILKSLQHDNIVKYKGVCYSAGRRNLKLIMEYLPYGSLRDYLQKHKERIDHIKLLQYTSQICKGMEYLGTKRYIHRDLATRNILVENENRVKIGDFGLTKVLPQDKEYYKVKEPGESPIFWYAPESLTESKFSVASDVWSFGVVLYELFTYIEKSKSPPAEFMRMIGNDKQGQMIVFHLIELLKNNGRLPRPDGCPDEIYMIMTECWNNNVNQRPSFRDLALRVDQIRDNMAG
The target in a further experiment is TBK1 (Homo sapiens (Human), UniProt Q9UHD2). The experiment in a line: TBK1 TR-FRET enzymatic assay.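 Also: phosphorylation of a biotinylated Ser/Thr peptide by purified full-length recombinant TBK1, read by TR-FRET after 240 min at 25 °C, IC50 is the geometric mean of at least four runs.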 Background: TR-FRET usually uses a lanthanide donor and a delayed reading to cut background.
Chain of TBK1 (Q9UHD2 whole entry): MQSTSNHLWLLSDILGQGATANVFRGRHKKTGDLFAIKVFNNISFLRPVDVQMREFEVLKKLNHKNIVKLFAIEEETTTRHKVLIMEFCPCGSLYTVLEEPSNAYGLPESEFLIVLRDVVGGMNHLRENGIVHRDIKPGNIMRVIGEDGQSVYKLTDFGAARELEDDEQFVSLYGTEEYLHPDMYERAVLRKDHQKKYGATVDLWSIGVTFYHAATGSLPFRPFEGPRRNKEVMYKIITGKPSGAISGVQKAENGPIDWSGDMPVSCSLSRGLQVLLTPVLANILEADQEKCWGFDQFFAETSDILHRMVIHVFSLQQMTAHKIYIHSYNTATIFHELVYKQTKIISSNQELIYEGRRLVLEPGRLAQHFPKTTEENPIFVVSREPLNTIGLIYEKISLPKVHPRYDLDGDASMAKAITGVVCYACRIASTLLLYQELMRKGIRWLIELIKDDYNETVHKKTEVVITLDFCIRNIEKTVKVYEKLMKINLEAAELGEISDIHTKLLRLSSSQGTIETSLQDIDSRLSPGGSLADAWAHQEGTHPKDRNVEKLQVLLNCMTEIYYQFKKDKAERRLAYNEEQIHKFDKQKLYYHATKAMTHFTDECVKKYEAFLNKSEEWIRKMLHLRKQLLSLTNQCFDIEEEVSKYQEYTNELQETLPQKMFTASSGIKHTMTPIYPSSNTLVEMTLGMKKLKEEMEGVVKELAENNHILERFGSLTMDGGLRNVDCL
[1] abbreviates: TR-FRET, 2×Km ATP, geometric mean of minimum four determinations, read-out: IKKe IC50.

Chain of IKKε (Q14164 whole entry): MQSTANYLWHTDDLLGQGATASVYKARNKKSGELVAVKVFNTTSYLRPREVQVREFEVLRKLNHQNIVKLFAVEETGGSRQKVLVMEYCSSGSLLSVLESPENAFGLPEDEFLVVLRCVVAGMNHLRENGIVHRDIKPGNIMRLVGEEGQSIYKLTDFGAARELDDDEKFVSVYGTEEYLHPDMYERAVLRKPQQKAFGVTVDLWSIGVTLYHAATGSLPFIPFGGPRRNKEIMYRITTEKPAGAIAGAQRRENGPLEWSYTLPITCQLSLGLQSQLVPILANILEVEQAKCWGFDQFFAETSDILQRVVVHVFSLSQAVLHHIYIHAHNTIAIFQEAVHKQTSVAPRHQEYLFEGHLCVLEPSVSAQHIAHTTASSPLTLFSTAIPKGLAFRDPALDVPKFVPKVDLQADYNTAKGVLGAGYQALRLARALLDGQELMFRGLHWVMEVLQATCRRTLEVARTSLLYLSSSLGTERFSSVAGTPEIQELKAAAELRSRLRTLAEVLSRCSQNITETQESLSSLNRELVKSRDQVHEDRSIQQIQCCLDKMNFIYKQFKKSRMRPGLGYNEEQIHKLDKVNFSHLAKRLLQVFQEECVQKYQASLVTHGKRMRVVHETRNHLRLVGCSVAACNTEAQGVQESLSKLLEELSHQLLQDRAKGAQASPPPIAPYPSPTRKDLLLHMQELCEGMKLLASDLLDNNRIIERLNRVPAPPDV

As to `N#Cc1cc(-c2ncnc(Nc3ccc(C4CCN(C5COC5)CC4)cc3)n2)ccc1O[C@H]1CCN(C(=O)[C@@H](O)CO)C[C@H]1F` [Example 509, 2-(((3R,4S)-1-((S)-2,3-dihydroxypropanoyl)-3-fluoropiperidin-4-yl)oxy)-5-(4-((4-(1-(oxetan-3-yl)piperidin-4-yl)phenyl)amino)-1,3,5-triazin-2-yl)benzonitrile], the figures for the IC50 on IKKε (setting [1]), on hJAK2 and at TBK1 were 1 nM, 699 nM and 3 nM, respectively.
Consider `C[C@H](O)C(=O)N1CC[C@H](Oc2ccc(-c3ncnc(Nc4ccc(N5CCN(C6COC6)CC5)cc4)n3)cc2C#N)C(F)(F)C1` (single isomer, unassigned) [Example 155], for which the figures for the IC50 on IKKε (read-out: IKKe IC50) and at hJAK2 were 1 nM and 198 nM, respectively.
The matching figures for `N#Cc1cc(-c2ncnc(Nc3ccc(N4CCN(C5COC5)CC4)cc3)n2)ccc1O[C@H]1CCN(C(=O)[C@@H]2CCCN2)C[C@H]1F` [Example 133, 2-(((3R,4S)-3-fluoro-1-((S)-pyrrolidine-2-carbonyl)piperidin-4-yl)oxy)-5-(4-((4-(4-(oxetan-3-yl)piperazin-1-yl)phenyl)amino)-1,3,5-triazin-2-yl)benzonitrile]: at least 1000 nM and at least 1000 nM.
For `C[C@H](O)C(=O)N1CC[C@H](Oc2ccc(-c3ncnc(Nc4ccc(N5CCOC[C@@H]5CO)cc4)n3)cc2C#N)[C@H](F)C1` [Example 387, 2-(((3R,4S)-3-fluoro-1-((S)-2-hydroxypropanoyl)piperidin-4-yl)oxy)-5-(4-((4-((S)-3-(hydroxymethyl)morpholino)phenyl)amino)-1,3,5-triazin-2-yl)benzonitrile], the IC50 (usually the midpoint of a concentration-inhibition curve) is 2 nM on IKKε (read-out: IKKe IC50) and 3 nM on TBK1.
With `C[C@H]1C[C@H](Oc2ccc(-c3ncnc(Nc4ccc(N5CCN(C6COC6)CC5)cc4)n3)cc2C#N)[C@H](F)CN1C(=O)[C@@H]1CCC(=O)N1` [Example 416, 2-(((2S,4S,5R)-5-fluoro-2-methyl-1-((S)-5-oxopyrrolidine-2-carbonyl)piperidin-4-yl)oxy)-5-(4-((4-(4-(oxetan-3-yl)piperazin-1-yl)phenyl)amino)-1,3,5-triazin-2-yl)benzonitrile], the results for the IC50 on IKKε (setting [1]) and on TBK1 were 124 nM and 64 nM, respectively.
Take `CS(=O)(=O)OC1CN(c2ccc(-c3ncnc(Nc4ccc(N5CCN(C6COC6)CC5)cc4)n3)cc2C#N)C1` [Example 276, 1-(2-cyano-4-(4-((4-(4-(oxetan-3-yl)piperazin-1-yl)phenyl)amino)-1,3,5-triazin-2-yl)phenyl)azetidin-3-yl methanesulfonate]: the values for the IC50 on IKKε (read-out: IKKe IC50) and against TBK1 were 38 nM and 23 nM, respectively.
For `C[C@H]1CN(C2COC2)CCN1c1ccc(Nc2ncnc(-c3ccc(O[C@H]4CCN(C(=O)c5cnn[nH]5)CC4(F)F)c(C#N)c3)n2)cc1` [Example 258, 2-(((S)-3,3-difluoro-1-(1H-1,2,3-triazole-5-carbonyl)piperidin-4-yl)oxy)-5-(4-((4-((S)-2-methyl-4-(oxetan-3-yl)piperazin-1-yl)phenyl)amino)-1,3,5-triazin-2-yl)benzonitrile] the same measures were 1 nM and 3 nM.
The matching figures for `COC(=O)N1CC[C@@H](Oc2ccc(-c3ncnc(Nc4ccc(N5CCN(C6COC6)CC5)cc4)n3)cc2C#N)C1` [Example 2, (R)-methyl 3-(2-cyano-4-(4-((4-(4-(oxetan-3-yl)piperazin-1-yl)phenyl)amino)-1,3,5-triazin-2-yl)phenoxy)pyrrolidine-1-carboxylate]: 148 nM and 37 nM.
For `N#Cc1cc(-c2ncnc(Nc3ccc(N4CCN(C5COC5)CC4)cc3)n2)ccc1OCC1(C(N)=O)CC1` [Example 605, 1-((2-cyano-4-(4-((4-(4-(oxetan-3-yl)piperazin-1-yl)phenyl)amino)-1,3,5-triazin-2-yl)phenoxy)methyl)-cyclopropanecarbox-amide] the same measures were 20 nM and 12 nM.
Regarding `N#Cc1cc(-c2ncnc(Nc3ccc(N4CCN(C5COC5)CC4)cc3)n2)ccc1OC1CC[S+]([O-])CC1` (single isomer, unassigned) [Example 25, 5-(4-((4-(4-(oxetan-3-yl)piperazin-1-yl)phenyl)amino)-1,3,5-triazin-2-yl)-2-((1-oxidotetrahydro-2H-thiopyran-4-yl)oxy)benzonitrile], the figures for the IC50 against IKKε (IKKe IC50) and at TBK1 (TBK1 IC50) were 73 nM and 21 nM, respectively.
`N#Cc1cc(-c2ncnc(Nc3ccc(N4CCN(C5COC5)CC4)c(F)c3)n2)ccc1O[C@H]1CCN(C(=O)[C@@H](O)CO)C[C@H]1F` [Example 409, 2-(((3R,4S)-1-((S)-2,3-dihydroxypropanoyl)-3-fluoropiperidin-4-yl)oxy)-5-(4-((3-fluoro-4-(4-(oxetan-3-yl)piperazin-1-yl)phenyl)amino)-1,3,5-triazin-2-yl)benzonitrile]: the IC50 turned out to be 1 nM at IKKε (setting [1]) and 2 nM against TBK1.
For `N#Cc1cc(-c2ncnc(Nc3ccc(N4CCN(C(=O)CO)CC4)cc3)n2)ccc1OC1CCOCC1` [Example 64, 5-(4-((4-(4-(2-hydroxyacetyl)piperazin-1-yl)phenyl)amino)-1,3,5-triazin-2-yl)-2-((tetrahydro-2H-pyran-4-yl)oxy)benzonitrile], the results for the IC50 at IKKε (read-out: IKKe IC50) and on TBK1 were 5 nM and 1 nM, respectively.
For `N#Cc1cc(-c2ncnc(Nc3ccc(N4CCN(C5COC5)CC4)cc3)n2)ccc1OC1CCN(C(=O)c2ncc[nH]2)CC1` [Example 189, 2-((1-(1H-imidazole-2-carbonyl)piperidin-4-yl)oxy)-5-(4-((4-(4-(oxetan-3-yl)piperazin-1-yl)phenyl)amino)-1,3,5-triazin-2-yl)benzonitrile] the same measures were 19 nM and 5 nM.
With `N#Cc1cc(-c2ncnc(Nc3ccc(N4CCNCC4)c(F)c3)n2)ccc1O[C@H]1CCOC[C@H]1F` [Example 298, 5-(4-((3-fluoro-4-(piperazin-1-yl)phenyl)amino)-1,3,5-triazin-2-yl)-2-(((3R,4S)-3-fluorotetrahydro-2H-pyran-4-yl)oxy)benzonitrile], the values for the half-maximal inhibitory concentration (IC50) at IKKε (read-out: IKKe IC50) and against TBK1 were 1 nM and 4 nM, respectively.
The matching figures for `Cc1nc(C)c(C(=O)N2CC[C@H](Oc3ccc(-c4ncnc(Nc5ccc(N6CCN(C7COC7)CC6)cc5)n4)cc3C#N)[C@H](F)C2)[nH]1` [Example 345, 2-(((3R,4S)-1-(2,4-dimethyl-1H-imidazole-5-carbonyl)-3-fluoropiperidin-4-yl)oxy)-5-(4-((4-(4-(oxetan-3-yl)piperazin-1-yl)phenyl)amino)-1,3,5-triazin-2-yl)benzonitrile]: 12 nM and 10 nM.
Consider `N#Cc1cc(-c2ncnc(Nc3ccc(N4CCN(C5COC5)CC4)cc3)n2)ccc1OC1CC[S+]([O-])CC1` (single isomer, unassigned) [Example 26, 5-(4-((4-(4-(oxetan-3-yl)piperazin-1-yl)phenyl)amino)-1,3,5-triazin-2-yl)-2-((1-oxidotetrahydro-2H-thiopyran-4-yl)oxy)benzonitrile], for which the IC50 at IKKε (IKKe IC50) came to 23 nM; against TBK1 (TBK1 IC50), 6 nM.
Consider `C[C@H]1C[C@H](Oc2ccc(-c3ncnc(Nc4ccc(N5CCN(C6COC6)CC5)cc4)n3)cc2C#N)[C@H](F)CN1C(=O)[C@H]1CCC(=O)N1` [Example 411, 2-(((2S,4S,5R)-5-fluoro-2-methyl-1-((R)-5-oxopyrrolidine-2-carbonyl)piperidin-4-yl)oxy)-5-(4-((4-(4-(oxetan-3-yl)piperazin-1-yl)phenyl)amino)-1,3,5-triazin-2-yl)benzonitrile], for which the concentration for half-maximal inhibition (IC50) at IKKε (setting [1]) is at least 1000 nM; at TBK1, 533 nM.
Regarding `N#Cc1cc(-c2ncnc(Nc3ccc(N4CCN(C5COC5)CC4)cc3)n2)ccc1O[C@H]1CCOC1` [Example 216, (S)-5-(4-((4-(4-(oxetan-3-yl)piperazin-1-yl)phenyl)amino)-1,3,5-triazin-2-yl)-2-((tetrahydrofuran-3-yl)oxy)benzonitrile], the IC50 on IKKε (read-out: IKKe IC50) was 42 nM; against TBK1, 13 nM.
For `COC(=O)N1CC[C@H](Oc2ccc(-c3ncnc(Nc4ccc(N5CCN(C6COC6)CC5)cc4)n3)cc2C#N)[C@H](F)C1` [Example 290, (3R,4S)-methyl 4-(2-cyano-4-(4-((4-(4-(oxetan-3-yl)piperazin-1-yl)phenyl)amino)-1,3,5-triazin-2-yl)phenoxy)-3-fluoropiperidine-1-carboxylate] the same measures were 32 nM and 13 nM.
`Cc1cc(Nc2ncnc(-c3ccc(O[C@@H]4CCC(=O)NC4)c(C#N)c3)n2)ccc1N1CCN(C2COC2)CC1` [Example 532, (R)-5-(4-((3-methyl-4-(4-(oxetan-3-yl)piperazin-1-yl)phenyl)amino)-1,3,5-triazin-2-yl)-2-((6-oxopiperidin-3-yl)oxy)benzonitrile]: the IC50 at IKKε (setting [1]) is 2 nM; at TBK1 it was 3 nM.
The matching figures for `N#Cc1cc(-c2ncnc(Nc3ccc(N4CCN5CCOC[C@H]5C4)cc3)n2)ccc1O[C@H]1CCN(C(=O)[C@@H]2CCC(=O)N2)C[C@H]1F` [Example 466, 2-(((3R,4S)-3-fluoro-1-((S)-5-oxopyrrolidine-2-carbonyl)piperidin-4-yl)oxy)-5-(4-((4-((R)-hexahydropyrazino[2,1-c][1,4]oxazin-8(1H)-yl)phenyl)amino)-1,3,5-triazin-2-yl)benzonitrile]: 5 nM and 4 nM.
Turning to `N#Cc1cc(-c2ncnc(Nc3ccc(N4CCN(C5COC5)CC4)cc3)n2)ccc1O[C@H]1CCN(Cc2nc(=O)[nH][nH]2)C[C@H]1F` [Example 436, 2-(((3R,4S)-3-fluoro-1-((5-oxo-2,5-dihydro-1H-1,2,4-triazol-3-yl)methyl)piperidin-4-yl)oxy)-5-(4-((4-(4-(oxetan-3-yl)piperazin-1-yl)phenyl)amino)-1,3,5-triazin-2-yl)benzonitrile], the IC50 is 99 nM at IKKε (setting [1]) and 156 nM on hJAK2.
